Data published in ChEMBL document CHEMBL1177659, “Structure-based virtual screening, synthesis and SAR of novel inhibitors of hepatitis C virus NS5B polymerase” (Bioorg Med Chem, 2010).

What was measured:
[1] = Inhibition of His-tagged recombinant NS5B Cdelta 21 polymerase expressed in Escherichia coli DH5alpha by standard primer dependent elongation assay; parameters: species or system Hepacivirus hominis
Hepacivirus hominis = test: Inhibition of His-tagged recombinant NS5B Cdelta 21 polymerase expressed in Escherichia coli DH5alpha at 250 uM by standard primer dependent elongation assay relative to control

SMILES	IC50 [1] [µM]	inhibition (Hepacivirus hominis) [%]
CC(C)C(C(=O)O)N1C(=O)/C(=C/c2ccc(F)cc2)SC1=S (centres undefined)	42.9	–
O=C(O)CCCN1C(=O)/C(=C/c2ccc(Cl)cc2Cl)SC1=S	58	–
O=C(O)CN1C(=O)/C(=C/c2cccc(Cl)c2)SC1=S	18.4	–
CC(C)CC(C(=O)O)N1C(=O)/C(=C/c2ccc(Cl)cc2Cl)SC1=S (centres undefined)	18.9	–
O=C(O)CN1C(=O)/C(=C/c2ccc(Cl)c(Cl)c2)SC1=S	8.4	–
O=C(O)CN1C(=O)/C(=C/c2cccc3ccccc23)SC1=S	61.4	–
CC(C)C(C(=O)O)N1C(=O)/C(=C/c2cccc3ccccc23)SC1=S (centres undefined)	16.9	–
O=C(O)CN1C(=O)/C(=C/c2ccccc2[N+](=O)[O-])SC1=S	16.2	–
O=C(O)CN1C(=O)/C(=C/c2cccc(Oc3ccccc3)c2)SC1=S	7.7	–
O=c1oc2ccccc2c2c1ncn2-c1ccccc1	60.2	62.5
CCc1ccc(/C=C2\SC(N[C@@H](C(=O)O)c3ccc(F)cc3)=NC2=O)o1 (stereo in doubt) [VALEANT]	3	–
CCCC(C(=O)O)N1C(=O)/C(=C/c2ccc(Cl)cc2Cl)SC1=S (centres undefined)	28.2	–
CSCCC(C(=O)O)N1C(=O)/C(=C/c2ccc(Cl)cc2Cl)SC1=S (centres undefined)	29.2	–
N#Cc1nc(-c2ccccc2)c(-c2ccccc2)nc1C#N	250	48.6
CC(C(=O)O)N1C(=O)/C(=C/c2ccc(Cl)cc2Cl)SC1=S (centres undefined)	13.3	–
O=C1/C(=C/c2ccc(Cl)c(Cl)c2)SC(=S)N1NS(=O)(=O)c1ccccc1	0.2	–
O=C(O)CCN1C(=O)/C(=C/c2ccc(Cl)cc2Cl)SC1=S	19.9	–
O=C(O)CN1C(=O)/C(=C/c2ccc(F)cc2)SC1=S	42.1	–
O=C(O)CN1C(=O)/C(=C/c2ccc(Cl)cc2Cl)SC1=S	17.9	–
O=C(O)c1ccc2c(c1)C(=O)N(c1cccc(O)c1)C2=O	200	55
O=C(O)CN1C(=O)/C(=C/c2cccc(C(F)(F)F)c2)SC1=S	50.9	–
O=C(O)CN1C(=O)/C(=C/c2cccc(Br)c2)SC1=S	20.2	–
O=C1/C(=C/c2ccc(Cl)cc2Cl)SC(=S)N1CCS(=O)(=O)O	23.5	–
O=C(O)CCCCCN1C(=O)/C(=C/c2ccc(Cl)cc2Cl)SC1=S	16.1	–
CC(C)C(C(=O)O)N1C(=O)/C(=C/c2ccccc2Cl)SC1=S (centres undefined)	36.1	–
O=C(O)C(Cc1ccccc1)N1C(=O)/C(=C/c2ccc(Cl)cc2Cl)SC1=S (centres undefined)	10.6	–
O=C(O)CN1C(=O)/C(=C/c2ccc(C(F)(F)F)cc2)SC1=S	55.2	71
O=C(O)CN1C(=O)/C(=C/c2ccc([N+](=O)[O-])cc2)SC1=S	21.9	–
CC(C)C(C(=O)O)N1C(=O)/C(=C/c2ccc(Cl)cc2Cl)SC1=S (centres undefined)	14.1	–
CC(C(=O)O)N1C(=O)/C(=C/c2cccc3ccccc23)SC1=S (centres undefined)	68.1	–
